From US8778688B2, “High-throughput methods for determining pharmacological levels of plasma D-serine” (The Johns Hopkins University, priority 2011, dated 2014)

Experiments:
[1] = target: T1, DAAO (Mus musculus, UniProt P18894); assay: Plasma D-serine after oral administration of D-serine ± DAAO inhibitors, determined by SPE/DAAO; format: in vivo; settings: CD1 mice; for plasma D-serine curve / exposure to D-serine on co-administration: D-serine 326 μmole/kg po plus inhibitor po (CBIO 180, TPC 160 μmoles/kg)
T1 construct: CD1 mice (6-8 wk old, Sprague Dawley, Harlan) were dosed orally with D-serine (30 mg/kg)±compounds; from tissue; host or cells: living CD1 mice (whole animal; DAAO of liver, kidney, brain)
T1 sequence (P18894 whole entry): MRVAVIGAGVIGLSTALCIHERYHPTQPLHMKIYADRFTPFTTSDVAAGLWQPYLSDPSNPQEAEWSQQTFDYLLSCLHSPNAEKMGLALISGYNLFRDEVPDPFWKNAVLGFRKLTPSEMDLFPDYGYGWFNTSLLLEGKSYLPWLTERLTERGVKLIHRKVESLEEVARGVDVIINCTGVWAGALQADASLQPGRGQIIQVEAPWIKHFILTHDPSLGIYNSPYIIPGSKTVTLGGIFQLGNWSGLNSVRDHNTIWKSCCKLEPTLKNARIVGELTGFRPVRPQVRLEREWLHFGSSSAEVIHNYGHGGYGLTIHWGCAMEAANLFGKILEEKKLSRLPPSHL
Procedure: Plasma was collected at 0.5, 1, 2, 3, and 6 hours after dosage. D-serine was extracted from plasma by SPE and its levels determined by the DAAO reaction. FIG. 2(A) depicts D-serine alone, FIG. 2(B) depicts CBIO alone, D-serine±CBIO and FIG. 2(C) depicts D-serine±TPC. […] Each data point is the average of data from 3 separate mice; error bars correspond to ±S.E.M. D-serine standard curves were constructed for each experiment.
Animals—CD1 mice (6-8 wk old, Sprague Dawley, Harlan) were dosed orally with D-serine (30 mg/kg)±compounds. Animals were sacrificed 0.5, 1, 2, 3 and 6 h after dosing and blood was collected by cardiac puncture bleeds. Plasma was prepared and frozen at −80° C. until use.
(§1) Cation Exchange SPE—D-serine was added to normal mouse plasma at different concentrations to generate a standard curve. Plasma (50 μL) containing D-serine or plasma from D-serine treated animals was diluted in 200 μL 0.03 N HCl (pH 1.5). […] Acidified samples were then added to a cation exchange resin (BioRad AG 50W-X4, 200 μL resin equilibrated with 0.03 N HCl) in deep well spin plates (Harvard Apparatus). Minicolumns were centrifuged for 2 min at 200×g. The resin was washed twice with 250 μL 0.03 N HCl and 3 times with 250 μL 100 mM Tris, pH 8.5. D-serine was eluted with 2 times 250 μL 100 mM Tris, pH 13.
D-serine Measurement—An aliquot (50 μL) of the D-serine eluant from the cation exchange SPE was used as the source of D-serine in the DAAO catalyzed reaction. […] Briefly, the reaction is carried out in Tris buffer (pH 8.5, 100 mM) in the presence of flavin adenine dinucleotide (10 μM). The peroxide formed from the oxidation of D-serine in the presence of porcine DAAO (34 units/mg, Sigma) was made to react with horse radish peroxidase (0.01 mg/ml, Sigma) in the presence of Amplex Red (50 μM, Invitrogen) to make resorufin. Fluorescence of resorufin (ex/em 530/590) was monitored in a SpectraMax Gemini XS fluorimeter for 1 h at 5 min intervals. D-serine concentrations were determined by interpolation from the standard curve of fluorescence vs. D-serine concentration. […]

[2] = target: T2, porcine DAAO (Sus scrofa, UniProt P00371); assay: DAAO enzyme coupled assay (Amplex Red/HRP, resorufin fluorescence); format: biochemical; settings: control experiment, CBIO not removed by SPE; data not shown
T2 construct: purchased Sigma
T2 sequence (P00371 whole entry): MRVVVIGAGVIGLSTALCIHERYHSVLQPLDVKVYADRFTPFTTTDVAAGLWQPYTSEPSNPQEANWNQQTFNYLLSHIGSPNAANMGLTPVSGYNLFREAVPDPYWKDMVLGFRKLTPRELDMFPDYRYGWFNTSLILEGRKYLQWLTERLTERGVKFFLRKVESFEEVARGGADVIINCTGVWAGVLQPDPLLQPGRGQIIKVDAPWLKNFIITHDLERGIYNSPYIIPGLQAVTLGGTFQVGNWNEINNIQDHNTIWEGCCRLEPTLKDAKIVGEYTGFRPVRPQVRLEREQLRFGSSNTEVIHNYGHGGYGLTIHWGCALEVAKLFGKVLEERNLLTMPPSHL
Procedure: D-serine Measurement—An aliquot (50 μL) of the D-serine eluant from the cation exchange SPE was used as the source of D-serine in the DAAO catalyzed reaction. The DAAO assay is an enzyme coupled assay that was adapted from a procedure that has been reported previously (P. E. Brandish, et al. J Biomol Screen 11 (2006) 481-87). Briefly, the reaction is carried out in Tris buffer (pH 8.5, 100 mM) in the presence of flavin adenine dinucleotide (10 μM). The peroxide formed from the oxidation of D-serine in the presence of porcine DAAO (34 units/mg, Sigma) was made to react with horse radish peroxidase (0.01 mg/ml, Sigma) in the presence of Amplex Red (50 μM, Invitrogen) to make resorufin. Fluorescence of resorufin (ex/em 530/590) was monitored in a SpectraMax Gemini XS fluorimeter for 1 h at 5 min intervals. D-serine concentrations were determined by interpolation from the standard curve of fluorescence vs. D-serine concentration.
The eluant containing D-serine was then used as substrate in the DAAO catalyzed reaction. […] The levels of several D-amino acids in mouse serum have been reported previously and they range from not detectable to 6 μM (A. Hashimoto, et al. Neurosci Lett 152 (1993) 33-36); these concentrations would give a low fluorescence background. […] In any case, background fluorescence was determined from control animals every time an experiment was carried out. […]

[3] = target: T3, DAAO (Rattus norvegicus, UniProt O35078); settings: oral co-administration with D-serine, rats; cited from earlier work
T3 construct: host or cells: living rats (whole animal)
T3 sequence (O35078 whole entry): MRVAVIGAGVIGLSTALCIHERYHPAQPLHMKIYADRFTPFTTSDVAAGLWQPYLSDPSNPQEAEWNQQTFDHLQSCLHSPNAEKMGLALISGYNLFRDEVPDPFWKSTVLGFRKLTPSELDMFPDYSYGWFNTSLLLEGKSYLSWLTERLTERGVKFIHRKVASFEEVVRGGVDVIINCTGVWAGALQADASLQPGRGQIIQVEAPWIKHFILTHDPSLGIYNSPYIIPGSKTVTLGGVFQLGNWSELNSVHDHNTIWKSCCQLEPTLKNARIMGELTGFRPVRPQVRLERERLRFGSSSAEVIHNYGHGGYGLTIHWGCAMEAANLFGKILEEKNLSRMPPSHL

[4] = test system: prepulse inhibition deficits; settings: co-administration with D-serine, ddy mice; similar to 10-fold higher doses of D-serine alone; cited from earlier work
[5] = cited from earlier work
[6] = Plasma D-serine time profile after oral D-serine, determined by SPE/DAAO; format: in vivo, CD1 mice; settings: D-serine 326 μmoles/kg po
Procedure: […] Animals were sacrificed 0.5, 1, 2, 3 and 6 h after dosing and blood was collected by cardiac puncture bleeds. Plasma was prepared and frozen at −80° C. until use.
as §1
D-serine Measurement—An aliquot (50 μL) of the D-serine eluant from the cation exchange SPE was used as the source of D-serine in the DAAO catalyzed reaction. The DAAO assay is an enzyme coupled assay that was adapted from a procedure that has been reported previously (P. E. Brandish, et al. J Biomol Screen 11 (2006) 481-87). […] Fluorescence of resorufin (ex/em 530/590) was monitored in a SpectraMax Gemini XS fluorimeter for 1 h at 5 min intervals. D-serine concentrations were determined by interpolation from the standard curve of fluorescence vs. D-serine concentration. […]

[7] = test system: N-methyl-D-aspartate (NMDA) receptor; settings: multiple clinical studies; high doses (2 g per day po); cited from earlier work

SMILES	plasma D-serine curve / exposure to D-serine on co-administration [1]	oxidation of D-serine by DAAO [2]	brain levels of D-serine compared to D-serine alone [3]	plasma levels of D-serine compared to D-serine alone [3]	prepulse inhibition deficits [4]	plasma D-serine levels when inhibitor administered in the absence of D-serine ([1]; CBIO alone)	pKa of the carboxylic acid [5]	time point showing the highest D-serine plasma concentration ([6]; first time point, Tmax likely earlier)	half-life ([6]; mouse, CD1 mice, plasma, read-out: estimated half-life of D-serine in mouse plasma)	treating the positive, negative and cognitive deficits of schizophrenia [7]
O=C(O)c1cc2sccc2[nH]1 [TPC, 4H-thieno[3,2-b]pyrrole-5-carboxylic acid]	shifted the exposure of D-serine in plasma	–	–	–	–	–	–	–	–	–
Oc1noc2ccc(Cl)cc12 [CBIO, 5-chloro-benzo[d]isoxazol-3-ol]	overall curve was shifted to the right	completely inhibited	significantly enhanced	significantly enhanced	normalized	the same as background levels	–	–	–	–
N[C@H](CO)C(=O)O [D-serine]	–	–	–	–	–	–	2.1	0.5 h	~50 min	effective
